{
  "source": "paper PMC10281321",
  "about": "“Discovery of an effective anti-inflammatory agent for inhibiting the activation of NF-κB” (Journal of Enzyme Inhibition and Medicinal Chemistry, 2023)",
  "key": {"[1]": {"tested_on": "RELA (p65) and NFKB1 (p50) subunits of NF-κB", "test": "Western blot of TNFα-induced nuclear translocation of p65 and p50 in HEK293T cells", "format": "cell-based", "conditions": "compound 4, 2, 1 μM 1 h, then TNF-α 12 h, nuclear protein WB", "method": "HEK293T cells were seeded into 6 well plate at a density of 1.5×10^6 cells per well and incubated at 37°C in 5% CO2 about 24 h. HEK293T cells were pretreated with compound (4, 2, 1 μM) for 1 h, then treated with TNF-α (1 μg/mL) for 12 h. The nuclear protein was extracted by Nuclear protein extraction kit(Beyotime).The samples were analyzed by WB.\nAll antibodies were purchased from ZENBIO. […]"}, "[2]": {"tested_on": "LPS-induced inflammation model of mice", "test": "LPS-induced inflammation model in vivo", "set-up": "species or system C57BL/6 mice", "method": "All antibodies were purchased from ZENBIO.\n4.9 Establishment of LPS-induced inflammation models in vivo\nThe 30 male C57BL/6 mice weighing 18-22 g were purchased from Animal Department of Anhui Medical University. After adaptive feeding for a week, mice were randomly divided into five groups on average, including the control group, LPS group, compound 51 (5,10,20 mg/kg) +LPS group. Before received 20 mg/kg LPS by intraperitoneal injection, mice were gavaged for three days of compound 51. 6 hours after received LPS, the blood and tissues were taken from mice. The levels of IL-6, TNF-α, SOD and MDA"}, "[3]": {"tested_on": "LPS-stimulated RAW264.7 cells", "test": "NO release inhibition in LPS-stimulated RAW264.7 cells (Griess reagent)", "format": "cell-based", "method": "After incubated for 24 hours, cells were treated with tested compounds for different\nconcentrations(3.125,6.25,12.5,25 and 50μM) for 1 h, and then treated with 1 μg/mL LPS\nfor further 24 h. The supernatants were collected and NO level was measured using\nGriess reagent (Beyotime, China). […]"}, "[4]": {"tested_on": "MAPKs (P38, JNK and ERK)", "test": "Western blot of LPS-regulated MAPK signalling activation in RAW264.7 cells", "format": "cell-based", "conditions": "LPS stimulated, WB", "method": "(§1) RAW264.7 cells were seeded into 6 well plate at a density of 1.5×10^6 per well and incubated at 37 C in 5% CO2 about 24 h. RAW264.7 cells were pretreated with compound (4, 2, 1 μM) for 1 h, then treated with LPS (1 μg/mL) for 30 min. The cells were lysed in 300 μL RIPA cell lysis buffer and the samples were analyzed by WB. […] All antibodies were purchased from ZENBIO. […]"}, "[5]": {"tested_on": "NF-κB", "test": "NF-κB transcriptional activity dual-luciferase reporter assay, TNF-α stimulated", "format": "cell-based", "conditions": "HEK293T cells transfected with NF-κB reporter plasmid, stimulated by TNF-α", "method": "(§2) 4.5. NF-κB transcriptional activity assay\nHEK293T cells were seeded into 96 well plate at a density of 1×10^5 cells per well. After incubated for 24 hours, cells were transfected with NF-κB reporter plasmid at 100 ng/well using lip2000.Six hours later, the medium was replaced by fresh medium containing tested compounds with different concentrations. Then incubated for another hour, TNF-α was added for a final concentration at 10 ng/mL.12 hours later, the cell lysate was collected and the RLU was measured by microplate reader. […]"}, "[6]": {"tested_on": "RAW264.7 cells", "test": "Reactive oxygen species (ROS) assay in LPS-stimulated RAW264.7 cells", "format": "cell-based", "conditions": "1 μg/mL LPS 24 h, DCFH-DA", "method": "[…]\nas §2\nHEK293T cells were seeded into 96 well plate at a density of 1×10^5 cells per well. After incubated for 24 hours, cells were transfected with NF-κB reporter plasmid at 100 ng/well using lip2000.Six hours later, the medium was replaced by fresh medium containing tested compounds with different concentrations. Then incubated for another hour, TNF-α was added for a final concentration at 10 ng/mL.12 hours later, the cell lysate was collected and the RLU was measured by microplate reader.\n4.6. […]\n(§3) RAW264.7 cells were seeded into 6 well plate at a density of 1.5×10^6 cells per well. After incubated for 24 hours, cells were treated with different concentrations of compound and stimulated by 1 μg/mL LPS after one hour.24 hours later, the supernatant was collected and measured by ELISA kits(MultiScience). […]\nstimulated by 1 μg/mL LPS after one hour.24 hours later, cells were collected and washed by PBS for three times. […] Cell samples were incubated for 20 min at 37°C,and then the fluorescence intensity measured by microplate reader using Ex λ 488 nm and Em λ 525 […]"}, "[7]": {"tested_on": "iNOS and COX-2", "test": "Western blot of iNOS and COX-2 expression in LPS-stimulated RAW264.7 cells", "format": "cell-based", "conditions": "compound 1 h then LPS 24 h, WB", "method": "RAW264.7 cells were seeded into 6 well plate at a density of 1.5×10^6 per well and incubated at 37 C in 5% CO2 about 24 h. RAW264.7 cells were pretreated with […]\nwere lysed in 300 μL RIPA cell lysis buffer and the samples were analyzed by WB. […] All antibodies were purchased from ZENBIO. […]"}, "[8]": {"tested_on": "TNF-α and IL-6", "test": "TNF-α and IL-6 assay (ELISA) in LPS-stimulated RAW264.7 cells", "format": "cell-based", "conditions": "1 μg/mL LPS 24 h, supernatant ELISA", "method": "4.6. TNF-α and IL-6 assay\nas §3"}, "[9]": {"test": "Cytotoxicity by MTT assay", "format": "cell-based"}, "[10]": {"tested_on": "NF-κB p65 and IκBα", "test": "Western blot of LPS-induced phosphorylation of p65 and IκBα in RAW264.7 cells", "format": "cell-based", "conditions": "compound 4, 2, 1 μM 1 h, then LPS 1 μg/mL 30 min, WB", "method": "as §1"}, "[11]": {"conditions": "compound 51 5,10,20 mg/kg gavaged, LPS i.p."}, "[12]": {"conditions": "compound 51 5,10,20 mg/kg gavaged, LPS i.p., ELISA"}},
  "note": "Entries after “also recorded” stand apart in the source; their conditions may differ.",
  "data": [
    {"smiles": "CC(=O)Nc1ccc(NC(=O)c2cc(-c3ccc(N)cc3Cl)cnc2N)cc1", "note": "[Compound 51]", "values": [
      {"measurement": "TNFα-induced nuclear translocation of p50", "setting": "[1]", "value": "inhibited by compound in a dose dependent manner"},
      {"measurement": "TNFα-induced nuclear translocation of p65", "setting": "[1]", "value": "inhibited by compound in a dose dependent manner"},
      {"measurement": "activation of NF-κB in splenic organ", "setting": "[2]; LPS i.p., spleen WB", "value": "suppressed the activation of NF-κB in splenic organ"},
      {"measurement": "injury of spleen (HE staining)", "setting": "[2]; compound 51 5,10,20 mg/kg gavaged three days before LPS i.p.", "value": "alleviated these injury in a dose-dependent manner"},
      {"measurement": "gastric distention and splenomegaly", "setting": "[2]; compound 51 5,10,20 mg/kg gavaged three days before LPS i.p., 6 hours after LPS", "value": "these symptoms were relieved"},
      {"measurement": "MDA activity in blood", "setting": "[2]; [11]", "value": "reversed their activity; also recorded: decreased MDA activity"},
      {"measurement": "SOD activity in blood", "setting": "[2]; [11]", "value": "reversed their activity; also recorded: increased SOD activity"},
      {"measurement": "IL-6 level in blood", "setting": "[2]; [12]", "value": "decreased obviously"},
      {"measurement": "TNF-α level in blood", "setting": "[2]; [12]", "value": "decreased obviously"},
      {"measurement": "IC50", "setting": "[3]; Mus musculus, LPS-stimulated RAW264.7 cells, Griess Reagent", "value": "3.1 ± 1.1", "unit": "µM"},
      {"measurement": "anti-inflammatory activity (in words)", "setting": "[3]; SAR summary covering NO release and NF-κB reporter inhibition", "value": "superior anti-inflammatory activity"},
      {"measurement": "phosphorylation of ERK", "setting": "[4]", "value": "significantly decreased"},
      {"measurement": "phosphorylation of JNK", "setting": "[4]", "value": "significantly decreased"},
      {"measurement": "phosphorylation of P38", "setting": "[4]", "value": "significantly decreased"},
      {"measurement": "IC50", "setting": "[5]", "value": "0.172 ± 0.0114", "unit": "µM"},
      {"measurement": "IC50", "setting": "[5]; Homo sapiens, HEK-293T", "value": 0.173, "unit": "µM"},
      {"measurement": "level of ROS", "setting": "[6]", "value": "decrease the level of ROS obviously"},
      {"measurement": "expression of COX-2", "setting": "[7]", "value": "decreased significantly"},
      {"measurement": "expression of iNOS", "setting": "[7]", "value": "decreased significantly"},
      {"measurement": "level of IL-6", "setting": "[8]", "value": "decreased the levels of TNF-α and IL-6 significantly in a dose dependent manner"},
      {"measurement": "level of TNF-α", "setting": "[8]", "value": "decreased the levels of TNF-α and IL-6 significantly in a dose dependent manner"},
      {"measurement": "IC50", "setting": "[9]", "value": "> 50", "unit": "µM"},
      {"measurement": "cytotoxicity (in words)", "setting": "[9]", "value": "did not show obvious cytotoxicity"},
      {"measurement": "LPS-induced phosphorylation of IκBα", "setting": "[10]", "value": "suppressed significantly in a dose dependent manner"},
      {"measurement": "LPS-induced phosphorylation of p65", "setting": "[10]", "value": "suppressed significantly in a dose dependent manner"}
    ]}
  ]
}
